According to patent US6417399B1, “Amelioration of neurological disorders by the administration of (2R),(3S), and/or (2S),3(S) stereoisomers of valnoctamide” (Yissum Research Development Company of the Hebrew …, priority 1997, dated 2002):
Several values for one entry are separate records, joined by “and”; a condition that tells them apart may be missing. Identical values can stand only once.

What was measured:
Assay type in all cases: in vivo, human
[1] = Pharmacokinetics of VCD stereoisomers in plasma after repeated oral dosing of racemic valnoctamide to epileptic patients; settings: repeated oral racemic VCD 200 mg tid, last day
Protocol: (§1) Patients Six epileptic patients (four men and two women aged 23-35 years, with a body weight of 56-85 kg) were studied. All had been receiving a constant carbamazepine dose (800-1200 mg/day) for at least three months. One patient was also receiving phenytoin (250 mg/day) and a second patient phenobarbital (150 mg/day). Each patient received add-on VCD for eight consecutive days at a dosage of 400 mg on day 1 (single dose day), followed by 200 mg three times daily (tid) for seven days. On the last day, only the morning and the midday doses were administered. Blood samples for plasma VCD levels were collected at 0, 0.25, 0.5, 1, 1.5, 2, 3, 4, 5, 6, 8, 10, 12 and 24 hours after the first and the last morning dose. Additional samples were taken at times 0, 0.5, 1, and 2 hours after the morning dose on the last treatment day.
(§2) Plasma Handling and Analytical Assays Plasma samples were separated immediately by centrifugation at 2,000 g for 10 minutes and stored at −20° C. until assaying (VCD is stable at −20° C.). The VCD plasma samples were analyzed by a gas chromatograph (HP 5890 series II)-mass spectrometer (HP 5989A)-GC-MS data system equipped with chiral capillary column. The mass spectrometer was operated in E1 mode at 70eV, the source temperature of the MS was maintained at 200° C. and the quadruple at 100° C. Mass units and their relative abundance were calibrated with perfluorotributylamine (PFTBA). Spectra were collected in the range of […], and the chiral analysis started 18 minutes after injection. Gas chromatograph (GC) oven temperature programming conditions were as follows: 50° C. for 1 minute, then increasing at a rate of 8° C./minute until 100° C., holding for a minute then 4° C./minute until reaching a final temperature of 250° C. The injector temperature is 240° C. and the GC-MS transfer line temperature is 250° C. Inlet pressure is 5 psi with a linear flow rate 20 cm/second. Helium was used as the carrier gas. Chromatographic resolution of the VCD stereoisomers was accomplished by a direct separation on a chiral stationary phase (CSP) column. The CSP consisted of a Chirasil-γ-Dex (octakis (3-O-butanoyl-2,6-di-o-pentyl)-γ-cyclodextrin chemically linked via a 6-mono-octamethylene spacer to a dimethylpolysiloxane. The 0.25 μm Chirasil-γ-Dex was coated on a 25 m×250 μm (id) fused silica capillary column. This CSP of a cyclodextin derivative allows complete baseline resolution of the four stereoisomers (α=1.04, Rs=2.0-2.4) in 24 minutes as depicted in FIG. 2. Intra and inter-day variability in the retention times of the four VCD stereoisomers was less than 10%. A calibration curve was established by spiking drug-free plasma samples with known amounts of racemic VCD at a concentration range of 0.2 mg/L to 8 mg/L (or 0.05 mg/L to 2 mg/L of each of the four VCD stereoisomers).
(§3) Pharmacokinetic and Statistical Analysis Pharmacokinetic parameters were calculated by noncompartmental analysis according to statistical moment theory. Peak plasma concentrations (Cmax) and peak times (tmax) were derived directly from the measured values. The linear terminal slopes (λ) of the log-concentration of each VCD stereoisomer versus time curves were calculated by the peeling procedure. Half life (t½) values were calculated as 0.693/λ. Areas under the plasma concentration versus time curve (AUC), after single dosing, were calculated by the trapezoidal rule with extrapolation to infinity by dividing the last measured concentration by the terminal slope. During repeated administration AUC was calculated over the last two dosing intervals by using the trapezoidal rule. Mean residence time (MRT) was calculated after single dosing as AUMC/AUC, in which AUMC is the area under the concentration×time product versus time curve from zero to infinity. Following single dosing, oral clearance (CL/F, in which F is the oral availability) and apparent volume of distribution at steady state (Vss/F) were calculated as Dose/AUC and as MRT×CL/F, respectively. […]

[2] = Pharmacokinetics of VCD stereoisomers in plasma after single oral dose of racemic valnoctamide to healthy subjects
Protocol: Healthy Subjects Seven healthy male volunteers, aged 20-31 years, weighing 61 to 85 kg, received 2×200 mg valnoctamide tablets (Nirvanil@) at 08:00 hours after an overnight fast. Venous blood samples were taken through an indwelling catheter 0, 0.5, 1, 2, 3, 4, 5, 6, 8, 10, 12 and 24 hours after dosing. Food was witheld for 4 hours after dosing.
as §2
Pharmacokinetic and Statistical Analysis Pharmacokinetic parameters were calculated by noncompartmental analysis according to statistical moment theory. Peak plasma concentrations (Cmax) and peak times (tmax) were derived directly from the measured values. The linear terminal slopes (λ) of the log-concentration of each VCD stereoisomer versus time curves were calculated by the peeling procedure. Half life (t½) values were calculated as 0.693/λ. Areas under the plasma concentration versus time curve (AUC), after single dosing, were calculated by the trapezoidal rule with extrapolation to infinity by dividing the last measured concentration by the terminal slope. During repeated administration AUC was calculated over the last two dosing intervals by using the trapezoidal rule. Mean residence time (MRT) was calculated after single dosing as AUMC/AUC, in which AUMC is the area under the concentration×time product versus time curve from zero to infinity. Following single dosing, oral clearance (CL/F, in which F is the oral availability) and apparent volume of distribution at steady state (Vss/F) were calculated as Dose/AUC and as MRT×CL/F, respectively. Following repeated dosing, CL/F was calculated from the quotient of the dose (200 mg) and the AUC obtained during one dosing interval (defined as one-half of the AUC calculated over two consecutive dosing intervals). Comparison of the pharmacokinetic parameters of all four VCD stereoisomers was made by ANOVA.

[3] = Pharmacokinetics of VCD stereoisomers in plasma after single oral dose of racemic valnoctamide to epileptic patients; settings: for CL/F / Cmax / MRT / tmax / t½: single oral 400 mg racemic VCD; for half lives: epileptic patients
Protocol: as §1, §2, §3

[4] = Mean ± SD of six epileptic patients
[5] = individual epileptic patients, last dosing interval
[6] = Mean ± SD of seven healthy subjects, single oral 400 mg racemic VCD
[7] = individual healthy subjects, single oral 400 mg racemic VCD
[8] = individual healthy subjects, single oral 400 mg racemic VCD (Nirvanil), stereoisomer in plasma
[9] = individual epileptic patients on carbamazepine

Row | SMILES | CL/F [1, 4] | Cmax [1, 4] | tmax [1, 4] | t½ [1, 4] | CL/F ([1]; individual epileptic patients) | Cmax ([1]; individual epileptic patients) | tmax ([1]; individual epileptic patients) | t½ [1, 5] | CL/F [2, 6] | Cmax [2, 6] | MRT [2, 6] | tmax [2, 6] | t½ [2, 6] | CL/F [2, 7] | Cmax [2, 7] | MRT [2, 7] | tmax [2, 7] | t½ [2, 8] | CL/F [3, 4] | Cmax [3, 4] | further results
1 | CCC(C)C(CC)C(N)=O (single isomer, unassigned; stereoisomer a) [Stereoisomer A] | 21 ± 4 L/h | 0.9 ± 0.2 mg/L | 1.5 ± 0.3 h | 2.8 ± 0.7 h | 23 L/h and 19 L/h (3×) and 20 L/h and 29 L/h | 0.9 mg/L and 1.1 mg/L and 0.72 mg/L and 0.86 mg/L and 0.8 mg/L and 1.2 mg/L | 2.0 h and 1.5 h (3×) and 1.0 h and 1.75 h | 2.2 h and 2.7 h and 3.8 h (2×) and 2.4 h and 4.8 h | 4.2 ± 0.6 L/h | 1.7 ± 0.2 mg/L | 15 ± 3 h | 0.7 ± 0.3 h | 10.2 ± 2.1 h | 3.6 L/h and 4.5 L/h and 4.1 L/h and 3.7 L/h and 4.6 L/h and 4.2 L/h and 3.5 L/h | 2.0 mg/L and 1.5 mg/L (2×) and 1.8 mg/L (3×) and 1.7 mg/L | 13 h (2×) and 20 h and 12 h (2×) and 15 h and 18 h | 1 h (3×) and 0.5 h (4×) | 8.8 h and 13.6 h and 8.1 h and 10.7 h and 9.5 h and 8.5 h and 12.5 h | 32 ± 7 L/h | 0.78 ± 0.10 mg/L | t½ ([2]; Mean ± SD of seven healthy subjects, single oral 400 mg racemic VCD, listed as A): approximately 10 h; MRT [3, 4]: 5.4 ± 1.5 h; tmax [3, 4]: 0.8 ± 0.5 h; t½ [3, 4]: 4.1 ± 2.1 h; half lives [3]: about 3 h; CL/F [3, 9]: 40 L/h and 27 L/h and 35 L/h (2×) and 32 L/h and 20 L/h; Cmax [3, 9]: 0.71 mg/L (2×) and 0.94 mg/L and 0.82 mg/L and 0.88 mg/L and 0.67 mg/L; MRT [3, 9]: 4.4 h and 5.1 h (2×) and 4.3 h and 5.3 h and 8.3 h; tmax [3, 9]: 1.5 h (2×) and 0.5 h (4×); t½ [3, 9]: 2.8 h and 3.6 h (2×) and 2.5 h and 8.3 h and 3.8 h
2 | CCC(C)C(CC)C(N)=O (single isomer, unassigned; stereoisomer b) [Stereoisomer B] | 58 ± 14 L/h | 0.4 ± 0.1 mg/L | 1.4 ± 0.3 h | 2.2 ± 0.5 h | 79 L/h and 50 L/h (2×) and 52 L/h and 71 L/h and 46 L/h | 0.4 mg/L (2×) and 0.5 mg/L (2×) and 0.3 mg/L (2×) | 2.0 h and 1.5 h (3×) and 1.0 h and 1.25 h | 2.0 h and 1.9 h and 2.9 h and 2.1 h and 4.3 h (2×) | 8.7 ± 0.9 L/h | 1.3 ± 0.2 mg/L | 8 ± 1 h | 0.7 ± 0.3 h | 5.8 ± 1.1 h | 7.9 L/h (2×) and 9.2 L/h and 8.4 L/h and 10.2 L/h and 8.1 L/h and 9.3 L/h | 1.5 mg/L (2×) and 1.1 mg/L (2×) and 1.4 mg/L (3×) | 7.0 h and 10 h (2×) and 7 h and 9 h and 8 h (2×) | 1 h (3×) and 0.5 h (4×) | 4.7 h and 7.3 h and 4.6 h and 6.0 h and 5.8 h and 5.2 h and 7.1 h | 80 ± 20 L/h | 0.41 ± 0.12 mg/L | t½ ([2]; Mean ± SD of seven healthy subjects, single oral 400 mg racemic VCD, listed as stereoisomer B): ~5.8 h; MRT [3, 4]: 4.0 ± 1.6 h; tmax [3, 4]: 0.75 ± 0.41 h; t½ [3, 4]: 3.0 ± 1.3 h; half lives [3]: about 3 h; CL/F [3, 9]: 108 L/h and 60 L/h and 94 L/h and 84 L/h and 56 L/h and 79 L/h; Cmax [3, 9]: 0.31 mg/L and 0.56 mg/L and 0.3 mg/L and 0.48 mg/L and 0.51 mg/L and 0.32 mg/L; MRT [3, 9]: 3.6 h and 5.2 h and 3.3 h and 1.3 h and 5.1 h and 5.6 h; tmax [3, 9]: 1 h and 0.5 h (4×) and 1.5 h; t½ [3, 9]: 1.4 h and 4.0 h (2×) and 1.3 h and 3.0 h and 4.1 h
3 | CCC(C)C(CC)C(N)=O (single isomer, unassigned; stereoisomer c) [Stereoisomer C] | 27 ± 5 L/h | 0.8 ± 0.2 mg/L | 1.4 ± 0.3 h | 2.9 ± 0.9 h | 26 L/h and 23 L/h (2×) and 24 L/h and 36 L/h and 28 L/h | 0.81 mg/L and 0.9 mg/L and 0.62 mg/L and 0.7 mg/L and 0.6 mg/L and 1.0 mg/L | 2.0 h and 1.5 h (3×) and 1.0 h and 1.25 h | 2.2 h and 3.0 h and 4.1 h (2×) and 2.3 h and 5.0 h | 4.3 ± 0.4 L/h | 1.6 ± 0.2 mg/L | 15 ± 3 h | 0.7 ± 0.3 h | 10.3 ± 1.9 h | 4.0 L/h and 5.1 L/h and 4.3 L/h and 4.1 L/h (2×) and 4.6 L/h and 3.9 L/h | 1.8 mg/L (2×) and 1.4 mg/L and 1.7 mg/L (2×) and 1.6 mg/L and 1.5 mg/L | 12 h (2×) and 18 h (2×) and 14 h and 16 h and 13 h | 1 h (3×) and 0.5 h (4×) | 8.4 h and 13 h and 8.0 h and 10 h and 11.1 h and 9.2 h and 12.4 h | 39 ± 8 L/h | 0.7 ± 0.12 mg/L | t½ ([2]; Mean ± SD of seven healthy subjects, single oral 400 mg racemic VCD, listed as C): approximately 10 h; MRT [3, 4]: 4.8 ± 0.4 h; tmax [3, 4]: 0.83 ± 0.5 h; t½ [3, 4]: 3.3 ± 0.5 h; half lives [3]: about 3 h; CL/F [3, 9]: 50 L/h and 31 L/h and 44 L/h and 38 L/h and 28 L/h and 41 L/h; Cmax [3, 9]: 0.55 mg/L and 0.82 mg/L and 0.56 mg/L and 0.76 mg/L and 0.8 mg/L and 0.7 mg/L; MRT [3, 9]: 4.4 h and 4.8 h (2×) and 4.2 h and 5.4 h and 5.0 h; tmax [3, 9]: 1.5 h (2×) and 0.5 h (4×); t½ [3, 9]: 2.8 h and 3.4 h and 2.6 h and 3.7 h (2×) and 3.5 h
